Paper PMC9031804, “The Peptide-Drug Conjugate TH1902: A New Sortilin Receptor-Mediated Cancer Therapeutic against Ovarian and Endometrial Cancers” (Cancers, 2022)

How the values were obtained:
[1] = test system: A2780 cells; experiment: Cell proliferation, MTT assay, A2780; type: cell-based; details: Homo sapiens, 72 h, mean ± SD, n = 3 to 5, read-out: IC50, anti-proliferative activity
Experimental: (§1) To assess the effects of docetaxel and TH1902 on ovarian and endometrial cancer cell proliferation, cells (ES-2: 3000 cells/well, SKOV3: 1000 cells/well, A2780: 7000 cells/well, AN3-CA: 7000 cells/well) were first seeded in 96-well plates (Perkin Elmer, Guelph, ON, Canada), then treated with various concentrations of drugs in complete cell culture medium. After 72 h of incubation for ES-2, A2780 and AN3-CA cells, or 96 h for SKOV3 cells, cell proliferation was measured using the 3-(4,5-dimethylthiazol-2-yl)-2,5-diphenyltetrazolium bromide (MTT) as described previously. Analyses were made in quadruplicate for each condition.

[2] = Mice weights, AN3-CA xenograft study; type: in vivo; details: docetaxel high dose 15 mg/kg, reversed when dosage was halved
Experimental: (§2) Tumor xenografts were established by subcutaneous inoculation of 5 × 10^6 cells (ES-2) or 7 × 10^6 cells (SKOV3) in 150 µL of HBSS; other xenografts were established by subcutaneous inoculation of 5 × 10^6 cells (A2780) or 2 × 10^6 cells (AN3-CA) in 150 µL of HBSS/Matrigel (50:50). All cells were injected into the right flanks of immunodeficient mice under light isoflurane anesthesia. The injection schedules and doses of injected substances are detailed in the figures. Briefly, when palpable ES-2, SKOV3 or AN3-CA tumors reached a volume of ~100 mm^3, mice were treated weekly with either vehicle, docetaxel (3.75 or 15 mg/kg) or TH1902 (8.75 or 35 mg/kg) at equivalent docetaxel amounts via intravenous (IV) tail vein injection. Note that three cycles of 15 mg/kg docetaxel is the maximum tolerated dose in mice and that 35 mg/kg TH1902 contains the same quantity of docetaxel (bis-linked to the peptide). […] Tumor growth was monitored by two-dimensional measurements taken with an electronic caliper and tumor volume was calculated according to the following formula: tumor volume (mm^3) = π/6 × length × width^2. Data are expressed as mean ± SEM and were analyzed using GraphPad Prism software. […]

[3] = test system: AN3-CA endometrial cancer xenografts; experiment: AN3-CA endometrial cancer xenograft tumor growth; type: in vivo, human tumor in female athymic nude mice; details: for Tumor progression, Size Increase (x-Fold Day-0): vehicle group endpoint Day 14, n = 6 mice/group
Source text: (§3) Animals were obtained from Charles River Laboratories, Inc. and allowed to acclimate for 5 days before experiments. Female CD-1 nude mice (Crl:CD1-Foxn1^nu, 4–6 weeks old; ES-2) or athymic nude mice (Crl:NU(NCr)-Foxn1^nu, 4–6 weeks old; SKOV3, A2780, AN3-CA) were used for the xenograft tumor models. Mice were maintained in a pathogen-free environment and handled in accordance with the Guidelines of the Canadian Council on Animal Care. Animal protocols were approved by the Institutional Animal Care and Use Committee of Université du Québec à Montréal (0620-C1R1-897-0621).
(§4) Tumor xenografts were established by subcutaneous inoculation of 5 × 10^6 cells (ES-2) or 7 × 10^6 cells (SKOV3) in 150 µL of HBSS; other xenografts were established by subcutaneous inoculation of 5 × 10^6 cells (A2780) or 2 × 10^6 cells (AN3-CA) in 150 µL of HBSS/Matrigel (50:50). All cells were injected into the right flanks of immunodeficient mice under light isoflurane anesthesia. The injection schedules and doses of injected substances are detailed in the figures. Briefly, when palpable ES-2, SKOV3 or AN3-CA tumors reached a volume of ~100 mm^3, mice were treated weekly with either vehicle, docetaxel (3.75 or 15 mg/kg) or TH1902 (8.75 or 35 mg/kg) at equivalent docetaxel amounts via intravenous (IV) tail vein injection. Note that three cycles of 15 mg/kg docetaxel is the maximum tolerated dose in mice and that 35 mg/kg TH1902 contains the same quantity of docetaxel (bis-linked to the peptide). In A2780 xenografts, when palpable tumors reached a volume of ~250 mm^3, mice were treated with either vehicle, paclitaxel (10 mg/kg, IV), carboplatin (40 mg/kg, intraperitoneal (IP)), docetaxel (10 mg/kg, IV) or TH1902 (23 mg/kg, IV) bi-weekly as single agents or once on Day-0 as combinations with carboplatin. For combination treatments, both taxanes and TH1902 were injected 1 h following carboplatin administrations at the doses previously described. Injectable solutions were prepared as follows: TH1902 was solubilized at 10 mg/mL in 10% Tween-80 in D5W (pH 4.3, w/v) then further diluted with D5W; docetaxel was solubilized at 25 mg/mL in ethanol and Tween-80 (50/50, v/v) then further diluted with D5W; paclitaxel was solubilized at 25 mg/mL in ethanol and Cremophor EL (50/50, v/v) then further diluted in saline; carboplatin was solubilized at 50 mg/mL in water then further diluted in a solution of 30% PEG400 and 5% Tween-80 in D5W (w/v); vehicle composition and preparation mimicked highest dose of TH1902 preparation. Tumor growth was monitored by two-dimensional measurements taken with an electronic caliper and tumor volume was calculated according to the following formula: tumor volume (mm^3) = π/6 × length × width^2. Data are expressed as mean ± SEM and were analyzed using GraphPad Prism software.

[4] = test system: ES-2 cells; experiment: Cell proliferation, MTT assay, ES-2; type: cell-based; details: Homo sapiens, 72 h, mean ± SD, n = 3 to 5, read-out: IC50, anti-proliferative activity
Experimental: as §1

[5] = ref [38]; cited from earlier work
Source text: Taxanes, mainly paclitaxel and docetaxel, are well-known microtubule stabilizers used in various cancer including ovarian and endometrial cancer first-line therapies in the last thirty years. […] Here, the new chemical entity TH1902 is distinct from the docetaxel molecule as it selectively exploits SORT1’s internalization properties to trigger cell apoptosis in ES-2 and ...

[6] = test system: SKOV3 cells; experiment: Cell proliferation, MTT assay, SKOV3; type: cell-based; details: Homo sapiens, SK-OV-3, 96 h, mean ± SD, n = 3 to 5, read-out: IC50, anti-proliferative activity
Experimental: as §1

[7] = test system: A2780 ovarian cancer xenografts; experiment: A2780 ovarian cancer xenograft tumor growth; type: in vivo, human tumor in female athymic nude mice; details: for Tumor progression, Size Increase (x-Fold Day-0): vehicle group endpoint, n = 5 mice/group
Source text: as §3, §4
Figure 8 Effects of TH1902 and carboplatin combinations on A2780 ovarian cancer xenografts. A2780 cells were subcutaneously implanted in the flanks of athymic nude mice. Tumor volume measurements following bi-weekly administrations of (A) vehicle, docetaxel, TH1902, paclitaxel or carboplatin as single agents, or (B) administered once in combination using the same dosage as described in the methods section. Colored dots below indicate drug treatments for all groups. Data are represented as mean ± SEM (n = 5 mice/group).

[8] = Mice weights, A2780 xenograft study; type: in vivo; details: docetaxel 10 mg/kg IV, three cycles
Experimental: as §2

[9] = mice; three (weekly) cycles; ref [31]; cited from earlier work
[10] = Mice weights, ES-2 xenograft study; type: in vivo; details: ES-2 study
[11] = test system: SKOV3 ovarian cancer xenografts; experiment: SKOV3 ovarian cancer xenograft tumor growth; type: in vivo, human tumor in female athymic nude mice; details: for Tumor progression, Size Increase (x-Fold Day-0): vehicle endpoint Day 28, n = 6 mice/group
Source text: as §3
Tumor xenografts were established by subcutaneous inoculation of 5 × 10^6 cells (ES-2) or 7 × 10^6 cells (SKOV3) in 150 µL of HBSS; other xenografts were established by subcutaneous inoculation of 5 × 10^6 cells (A2780) or 2 × 10^6 cells (AN3-CA) in 150 µL of HBSS/Matrigel (50:50). All cells were injected into the right flanks of immunodeficient mice under light isoflurane anesthesia. The injection schedules and doses of injected substances are detailed in the figures. Briefly, when palpable ES-2, SKOV3 or AN3-CA tumors reached a volume of ~100 mm^3, mice were treated weekly with either vehicle, docetaxel (3.75 or 15 mg/kg) or TH1902 (8.75 or 35 mg/kg) at equivalent docetaxel amounts via intravenous (IV) tail vein injection. Note that three cycles of 15 mg/kg docetaxel is the maximum tolerated dose in mice and that 35 mg/kg TH1902 contains the same quantity of docetaxel (bis-linked to the peptide). In A2780 xenografts, when palpable tumors reached a volume of ~250 mm^3, mice were treated with either vehicle, paclitaxel (10 mg/kg, IV), carboplatin (40 mg/kg, intraperitoneal (IP)), docetaxel (10 mg/kg, IV) or TH1902 (23 mg/kg, IV) bi-weekly as single agents or once on Day-0 as combinations with carboplatin. […] Tumor growth was monitored by two-dimensional measurements taken with an electronic caliper and tumor volume was calculated according to the following formula: tumor volume (mm^3) = π/6 × length × width^2. Data are expressed as mean ± SEM and were analyzed using GraphPad Prism software.
Figure 6 Effects of docetaxel and TH1902 on ES-2 and SKOV3 ovarian cancer xenografts. […] Immunodeficient mice bearing subcutaneous ES-2 (A) or SKOV3 (B) tumors were intravenously injected weekly with either vehicle, docetaxel (at its MTD and quarter MTD doses; 15 and 3.75 mg/kg, respectively), or TH1902 (at a dosage which contains a quantity of bound docetaxel equal to the docetaxel doses; 35 and 8.75 mg/kg, respectively), as described in the methods section. Mice in the ES-2 study were euthanized at vehicle group endpoint (Day 18), whereas indicated groups in SKOV3 study were monitored for a prolonged period up to Day 46 post start of treatments.

[12] = Mice weights, SKOV3 xenograft study; type: in vivo; details: docetaxel 15 mg/kg, three weekly cycles
Experimental: as §2

[13] = test system: ES-2 ovarian cancer xenografts; experiment: ES-2 ovarian cancer xenograft tumor growth; type: in vivo, human tumor in female CD-1 nude mice; details: for Tumor progression, Size Increase (x-Fold Day-0): vehicle group endpoint Day 18, n = 6 mice/group
Source text: as §3
Tumor xenografts were established by subcutaneous inoculation of 5 × 10^6 cells (ES-2) or 7 × 10^6 cells (SKOV3) in 150 µL of HBSS; other xenografts were established by subcutaneous inoculation of 5 × 10^6 cells (A2780) or 2 × 10^6 cells (AN3-CA) in 150 µL of HBSS/Matrigel (50:50). All cells were injected into the right flanks of immunodeficient mice under light isoflurane anesthesia. The injection schedules and doses of injected substances are detailed in the figures. […] Note that three cycles of 15 mg/kg docetaxel is the maximum tolerated dose in mice and that 35 mg/kg TH1902 contains the same quantity of docetaxel (bis-linked to the peptide). […] Tumor growth was monitored by two-dimensional measurements taken with an electronic caliper and tumor volume was calculated according to the following formula: tumor volume (mm^3) = π/6 × length × width^2. Data are expressed as mean ± SEM and were analyzed using GraphPad Prism software.
Figure 6 Effects of docetaxel and TH1902 on ES-2 and SKOV3 ovarian cancer xenografts. […] Immunodeficient mice bearing subcutaneous ES-2 (A) or SKOV3 (B) tumors were intravenously injected weekly with either vehicle, docetaxel (at its MTD and quarter MTD doses; 15 and 3.75 mg/kg, respectively), or TH1902 (at a dosage which contains a quantity of bound docetaxel equal to the docetaxel doses; 35 and 8.75 mg/kg, respectively), as described in the methods section. […]

[14] = single agent 10 mg/kg IV bi-weekly
[15] = single agent 40 mg/kg IP bi-weekly

CC(=O)O[C@@]12CO[C@@H]1C[C@H](O)[C@@]1(C)C(=O)[C@H](O)C3=C(C)[C@@H](OC(=O)[C@H](O)[C@@H](NC(=O)OC(C)(C)C)c4ccccc4)C[C@@](O)([C@@H](OC(=O)c4ccccc4)[C@H]21)C3(C)C [Docetaxel, docetaxel]
IC50 [1]: 1.76 ± 0.38 nM
Body weight loss, in words [2]: Rapid weight loss
Tumor progression, Size Increase (x-Fold Day-0) ([3]; docetaxel 3.75 mg/kg IV weekly): 12.07 x-Fold Day-0
Tumor progression, Size Increase (x-Fold Day-0) ([3]; docetaxel 15 mg/kg IV weekly): 0.79 x-Fold Day-0
Tumor response on prolonged monitoring ([3]; docetaxel high dose 15 mg/kg (halved for final two treatments), before end of treatments): unresponsive and regrew before the end of treatments
Tumor regression ([3]; docetaxel high dose 15 mg/kg, vs vehicle endpoint): induced tumor regressions
IC50 [4]: 2.24 ± 0.99 nM
Water solubility [5]: very poor water solubility
IC50 [6]: 0.61 ± 0.1 nM
Tumor growth inhibition [7, 14]: 43%
Tumor progression, Size Increase (x-Fold Day-0) [7, 14]: 4.13 x-Fold Day-0
Body weight loss, in words [8]: significant body weight loss
Maximum tolerated dose [9]: 15 mg/kg
Tolerability / body weight ([10]; docetaxel high dose 15 mg/kg, three weekly cycles, vs initial weight): small weight loss
Tolerability / body weight ([10]; docetaxel low dose 3.75 mg/kg weekly): well-tolerated with slight weight gain
Tumor progression, Size Increase (x-Fold Day-0) ([11]; docetaxel 3.75 mg/kg IV weekly): 9.70 x-Fold Day-0
Tumor progression, Size Increase (x-Fold Day-0) ([11]; docetaxel 15 mg/kg IV weekly): 2.25 x-Fold Day-0
Tumor regrowth on prolonged monitoring ([11]; docetaxel high dose 15 mg/kg, prolonged monitoring): could not sustain this effect, which is marked by tumor regrowth
Tumor growth inhibition ([11]; docetaxel high dose 15 mg/kg, vs vehicle endpoint Day 28): 84%
Body weight loss [12]: > 10%
Body weight loss, in words [12]: severe weight loss
Tumor progression, Size Increase (x-Fold Day-0) ([13]; docetaxel 3.75 mg/kg IV weekly): 10.08 x-Fold Day-0
Tumor progression, Size Increase (x-Fold Day-0) ([13]; docetaxel 15 mg/kg IV weekly): 8.31 x-Fold Day-0
Effect on tumor growth ([13]; docetaxel, both 3.75 and 15 mg/kg IV weekly): produced little effect

N.N.O=C([O-])C1(C(=O)[O-])CCC1.[Pt+2] [Carboplatin, carboplatin]
Tumor growth inhibition [7, 15]: 38%
Tumor progression, Size Increase (x-Fold Day-0) [7, 15]: 4.21 x-Fold Day-0
